Source: patent US6432985B1, “Neuroprotective substituted piperidine compounds with activity as NMDA NR2B subtype selective antagonists” (Hoffmann-La Roche Inc., priority 2000, dated 2002)

Tests used:
α1-adrenergic receptors = experiment: [3H]-Prazosin binding; details: rat brain membranes; 0.2 nM 3H-Prazosine; indicates affinity for α1-adrenergic receptors; read-out: Inhibition of [3H]-Prazosin binding IC50
Method: (§1) Male Füllinsdorf albino rats weighing between 150-200 g were used. Membranes were prepared by homogenization of the whole brain minus cerebellum and medulla oblongata with a Plytron (10,000 rpm, 30 seconds), in 25 volumes of a cold Tris-HCl 50 mM, EDTA 10 mM, pH 7.1 buffer. The homogenate was centrifuged at 48.000 g for 10 minutes at 4° C. The pellet was resuspended using the Polytron in the same volume of buffer and the homogenate was incubated at 37° C. for 10 minutes. After centrifugation the pellet was homogenized in the same buffer and frozen at −80° C. for at least 16 hours but not more than 10 days. For the binding assay the homogenate was thawed at 37° C., centrifuged and the pellet was washed three times as above in a Tris-HCl 5 mM, pH 7.4 cold buffer. The final pellet was resuspended in the same buffer and used at a final concentration of 200 mg of protein/ml.
3H-Prazosin binding experiments were performed using a Tris-HCl 50 mM, pH 7.4 buffer. For displacement experiments 0.2 nM of 3H-Prazosine were used and non specific binding was measured using […] of Chlorpromazine. The incubation time was 30 minutes at room temperature and the assay was stopped by filtration on Whatman GF/B glass fiber filters (Unifilter-96, Canberra Packard S.A., Zürich, Switzerland). The filters were washed 5 times with cold buffer. The radioactivity on the filter was counted on a Packard Top-count microplate scintillation counter after addition of […] of microscint 40 (Canberra Packard S.A., Zürich, Switzerland). The effects of compounds were measured using a minimum of 8 concentrations and repeated at least once. The pooled normalized values were analyzed using a non-linear regression calculation program which provide IC50 with their relative upper and lower 95% confidence limits (RS1, BBN, USA).

[1] = molecular target: T1, NMDA NR2B subunit containing receptors (Rattus norvegicus, UniProt P35439+Q00960); experiment: [3H]-Ro 25-6981 binding; details: rat brain membranes; 5 nM 3H-Ro 25-6981; indicates affinity for NMDA NR2B subunit containing receptors; read-out: Inhibition of [3H]-Ro 25-6981 binding IC50
T1 construct: Membranes were prepared by homogenization of the whole brain minus cerebellum and medulla oblongata; from tissue; host or cells: rat whole brain minus cerebellum and medulla oblongata, membrane preparation
T1 sequence (Q00960 27-1482, other chains not shown): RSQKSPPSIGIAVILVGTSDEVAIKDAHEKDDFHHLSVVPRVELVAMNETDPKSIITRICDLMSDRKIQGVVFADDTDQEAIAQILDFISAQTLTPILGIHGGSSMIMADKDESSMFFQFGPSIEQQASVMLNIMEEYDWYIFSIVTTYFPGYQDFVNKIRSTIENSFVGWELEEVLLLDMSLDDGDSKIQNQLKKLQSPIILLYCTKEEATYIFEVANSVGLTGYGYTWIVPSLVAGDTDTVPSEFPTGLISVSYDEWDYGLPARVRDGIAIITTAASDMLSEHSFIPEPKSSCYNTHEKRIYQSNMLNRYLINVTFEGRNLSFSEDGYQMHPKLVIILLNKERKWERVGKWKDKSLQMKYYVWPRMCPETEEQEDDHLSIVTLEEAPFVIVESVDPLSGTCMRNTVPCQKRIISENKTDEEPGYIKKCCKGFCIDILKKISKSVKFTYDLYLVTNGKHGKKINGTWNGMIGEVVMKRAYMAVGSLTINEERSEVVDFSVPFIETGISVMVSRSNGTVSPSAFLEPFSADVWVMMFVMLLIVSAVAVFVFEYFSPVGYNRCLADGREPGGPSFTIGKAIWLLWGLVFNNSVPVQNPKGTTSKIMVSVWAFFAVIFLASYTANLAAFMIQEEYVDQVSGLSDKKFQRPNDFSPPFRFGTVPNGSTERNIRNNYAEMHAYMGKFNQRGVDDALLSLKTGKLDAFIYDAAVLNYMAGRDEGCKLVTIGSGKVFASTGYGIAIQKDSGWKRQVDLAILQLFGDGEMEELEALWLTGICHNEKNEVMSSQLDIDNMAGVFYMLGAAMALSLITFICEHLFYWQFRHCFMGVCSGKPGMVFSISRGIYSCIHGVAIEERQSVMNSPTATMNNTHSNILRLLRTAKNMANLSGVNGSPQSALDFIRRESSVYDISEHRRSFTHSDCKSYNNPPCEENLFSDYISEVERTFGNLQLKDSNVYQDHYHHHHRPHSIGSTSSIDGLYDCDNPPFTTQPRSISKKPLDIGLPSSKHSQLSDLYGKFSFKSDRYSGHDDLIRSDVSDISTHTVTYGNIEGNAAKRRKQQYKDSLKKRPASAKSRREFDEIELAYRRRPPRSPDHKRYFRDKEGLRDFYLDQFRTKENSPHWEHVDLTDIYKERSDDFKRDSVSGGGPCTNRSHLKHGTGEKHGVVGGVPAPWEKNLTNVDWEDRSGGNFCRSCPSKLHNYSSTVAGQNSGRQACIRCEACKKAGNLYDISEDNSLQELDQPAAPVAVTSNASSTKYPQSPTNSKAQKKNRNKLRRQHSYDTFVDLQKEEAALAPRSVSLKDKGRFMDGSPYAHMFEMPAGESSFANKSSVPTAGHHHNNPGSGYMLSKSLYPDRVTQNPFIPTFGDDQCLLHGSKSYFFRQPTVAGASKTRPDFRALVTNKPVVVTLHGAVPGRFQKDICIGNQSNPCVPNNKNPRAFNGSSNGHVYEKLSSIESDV
Method: 3H-Ro 25-6981 Binding(Ro 25-6981 is [R-(R*,S*)]-α-(4-Hydroxy-phenyl)-β-methyl-4-(phenyl-methyl)-1-piperidine propanol)
as §1, with “Polytron” for “Plytron”, “μg” for “mg”
[3H]-Ro 25-6981 binding experiments were performed using a Tris-HCl 50 mM, pH 7.4 buffer. For displacement experiments 5 nM of 3H-Ro 25-6981 were used and non specific binding was measured using 10 μM of tetrahydroisoquinoline and usually it accounts for 10% of the total. The incubation time was 2 hours at 4° C. and the assay was stopped by filtration on Whatman GF/B glass fiber filters (Unifilter-96, Packard, Zürich, Switzerland). The filters were washed 5 times with cold buffer. The radioactivity on the filter was counted on a Packard Top-count microplate scintillation counter after addition of […] of microscint 40 (Canberra Packard S.A., Zürich, Switzerland).
The effects of compounds were measured using a minimum of 8 concentrations and repeated at least once. The pooled normalized values were analyzed using a non-linear regression calculation program which provide IC50 with their relative upper and lower 95% confidence limits (RS1, BBN, USA).

[2] = molecular target: T2, recombinant human ERG potassium channels (Homo sapiens, UniProt Q12809); experiment: Inhibition of the hERG K+ channel (whole-cell patch-clamp, CHO cells); format: cell-based; details: recombinant human ERG channels expressed in CHO cells; concentrations higher than 10 μM not tested; read-out: Inhibition of hERG K+ current IC50
T2 construct: expressed in transfected cells
T2 sequence (Q12809 whole entry): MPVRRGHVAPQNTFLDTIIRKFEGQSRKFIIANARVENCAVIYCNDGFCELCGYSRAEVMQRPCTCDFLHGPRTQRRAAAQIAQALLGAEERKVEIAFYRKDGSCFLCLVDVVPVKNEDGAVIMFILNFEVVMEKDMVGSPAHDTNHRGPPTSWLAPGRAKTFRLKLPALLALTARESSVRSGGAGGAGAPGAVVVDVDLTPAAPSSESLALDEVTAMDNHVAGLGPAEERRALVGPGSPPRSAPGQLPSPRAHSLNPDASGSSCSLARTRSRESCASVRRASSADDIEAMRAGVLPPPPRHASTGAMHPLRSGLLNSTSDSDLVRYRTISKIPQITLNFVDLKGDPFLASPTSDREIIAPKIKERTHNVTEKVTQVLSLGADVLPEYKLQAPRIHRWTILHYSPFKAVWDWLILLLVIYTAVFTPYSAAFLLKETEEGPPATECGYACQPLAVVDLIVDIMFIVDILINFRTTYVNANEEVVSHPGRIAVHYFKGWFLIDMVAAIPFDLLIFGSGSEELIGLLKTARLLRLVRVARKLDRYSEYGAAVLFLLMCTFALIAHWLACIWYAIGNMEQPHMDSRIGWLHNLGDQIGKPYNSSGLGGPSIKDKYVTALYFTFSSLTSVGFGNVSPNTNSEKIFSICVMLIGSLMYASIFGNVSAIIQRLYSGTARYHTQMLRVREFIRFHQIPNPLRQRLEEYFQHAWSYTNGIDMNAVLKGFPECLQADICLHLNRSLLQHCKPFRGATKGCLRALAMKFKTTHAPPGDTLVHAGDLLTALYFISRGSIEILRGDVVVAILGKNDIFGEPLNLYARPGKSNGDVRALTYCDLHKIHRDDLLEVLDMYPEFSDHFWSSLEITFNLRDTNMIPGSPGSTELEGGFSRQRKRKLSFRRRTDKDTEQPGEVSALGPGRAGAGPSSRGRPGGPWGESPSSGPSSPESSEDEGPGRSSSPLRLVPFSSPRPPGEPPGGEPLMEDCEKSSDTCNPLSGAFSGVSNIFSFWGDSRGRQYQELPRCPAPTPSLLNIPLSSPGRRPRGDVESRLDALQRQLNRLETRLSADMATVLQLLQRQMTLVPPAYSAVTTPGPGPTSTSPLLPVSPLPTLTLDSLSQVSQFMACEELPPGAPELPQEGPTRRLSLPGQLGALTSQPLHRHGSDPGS
Source text: (§2) Methods for Studying the Inhibition of the hERG K^+ Channel
(§3) CHO cells were stably transfected by a pcDNA3-hERG expression vector containing a SV40-neo cassette for selection. Cells were thinly plated into 35 mm dishes and used for the electrophysiological experiment ½-3 d later.
(§4) During the experiment the cells were continuously superfused with an extracellular saline containing (in mM): NaCl 150, KCl 10, MgCl2 1, CaCl2 3, HEPES 10 (pH=7.3 by addition of NaOH). A 10-mM stock solution of the test compound was made from pure DMSO. Test solution were made by at least 1000-fold dilution of the stock solution into the extracellular saline. The glass micropipettes for whole-cell patch-clamp recording were filled with a containing (in mM): KCl 110, BAPTA 10, HEPES 10, MgCl2 4.5, Na2ATP 4, Na2-phosphocreatine 20, creatine kinase 200 μg/ml (pH=7.3 by addition of KOH).
(§5) The whole-cell configuration of the patch-clamp technique was used for the experiments. Cells were clamped to −80 mV holding potential and repetitively (0.1 Hz) stimulated by a voltage pulse pattern consisting of a 1-s conditioning depolarisation to 20 mV immediately followed by a hyperpolarisation of 50 ms duration to −120 mV. The membrane current was recorded for at least 3 min (18 stimuli) before compound application (control), and then for another two 3-min intervals in presence of two different concentrations of the compound. The current amplitudes (Itest) at the end of each compound application interval were divided by the mean current amplitude (Icontrol) during the initial control period to calculate the percentage effect of the compound:
(§6) effect (%)=(1-Itest/Icontrol)·100.
(§7) Compound concentrations were chosen in decade steps (usually 1 and 10 μM) around the expected 50% inhibitory concentration (IC50). If after the first experiment the IC50 turned out to lie outside the range between the two chosen concentrations the concentrations were changed to bracket the IC50 in the following experiments. The compound was tested on at least three cells. Its IC50 was then estimated from the population of all percent-effect values by non-linear regression using the function […]). Concentrations higher than 10 μM were not tested.

hERG K+ channel = molecular target: T3, hERG K+ channel (Homo sapiens, UniProt Q12809); experiment: as above; format: cell-based; details: CHO cells stably transfected with hERG (pcDNA3-hERG), pH 7.3; average effect at 10 μM; recombinant human ERG channels in CHO cells; read-out: Inhibition of hERG K+ current, effect (%) at 10 μM
T3 construct: expressed in transfected cells
T3 sequence (Q12809 whole entry): as above
Source text: as §2, §3, §4, §5, §6, §7

| Compound | IC50 (α1-adrenergic receptors) [µM] | IC50 [1] [µM] | IC50 [2] [µM] | inhibition at 3 min, 10 µM (hERG K+ channel) [%] |
| --- | --- | --- | --- | --- |
| Cc1ccc(CC2(O)CCN(CCOc3ccc(O)cc3)CC2)cc1 [EP 824098, 1-[2-(4-hydroxy-phenoxy)-ethyl]-4-(4-methyl-benzyl)-piperidin-4-ol, reference compound] | 3.5 | 0.01 | 0.69 |  |
| Oc1ccc(OCCN2CC[C@](O)(Cc3ccccc3)[C@H](O)C2)cc1 (racemic) [I (racemate), (3R,4R) and (3S,4S)-4-benzyl-1-[2-(4-hydroxy-phenoxy)-ethyl]-piperidine-3,4-diol] | 27 | 0.045 | > 10 | 45 |
| Oc1ccc(OCCN2CC[C@](O)(Cc3ccccc3)[C@H](O)C2)cc1 [I-1 (R,R), (3R,4R)-4-benzyl-1-[2-(4-hydroxy-phenoxy)-ethyl]-piperidine-3,4-diol] | 25 | 0.038 | > 10 | 44 |
| Oc1ccc(OCCN2CC[C@@](O)(Cc3ccccc3)[C@@H](O)C2)cc1 [I-2 (S,S), (3S,4S)-4-benzyl-1-[2-(4-hydroxy-phenoxy)-ethyl]-piperidine-3,4-diol] | 30 | 0.039 | > 10 | 40 |
